Results taken from publication PMC8119899, “A Single Mutation in the Outer Lipid-Facing Helix of a Pentameric Ligand-Gated Ion Channel Affects Channel Function Through a Radially-Propagating Mechanism” (Frontiers in Molecular Biosciences, 2021).
Where a chain is given by its changes, count along the chain named.

Key:
Assay type in all cases: cell-based
[1] = molecular target: T1, 5-HT3A receptor K255L (Mus musculus, UniProt P23979, K282L); experiment: FlexStation membrane potential dye, 5-HT response, K255L receptor in HEK293 cells; design: key: Mutants that did not respond in the functional assay are marked as non functional (NF)
T1 construct: expressed in transfected cells
T1 sequence (P23979 24-489 K282L): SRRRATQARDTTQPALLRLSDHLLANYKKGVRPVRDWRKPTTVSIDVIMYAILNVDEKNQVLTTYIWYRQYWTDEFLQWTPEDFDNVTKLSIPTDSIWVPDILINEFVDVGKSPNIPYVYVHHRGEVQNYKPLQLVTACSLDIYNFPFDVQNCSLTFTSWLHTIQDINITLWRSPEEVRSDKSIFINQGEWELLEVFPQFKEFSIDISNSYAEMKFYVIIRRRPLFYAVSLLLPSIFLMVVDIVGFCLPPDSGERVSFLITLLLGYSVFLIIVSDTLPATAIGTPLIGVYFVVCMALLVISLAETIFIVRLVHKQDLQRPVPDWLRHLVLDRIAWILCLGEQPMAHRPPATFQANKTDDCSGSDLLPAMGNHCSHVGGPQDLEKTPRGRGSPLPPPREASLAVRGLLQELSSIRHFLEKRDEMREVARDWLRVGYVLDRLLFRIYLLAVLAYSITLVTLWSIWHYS
Procedure: (§1) The mouse 5-HT3A cDNA (Q6J1J7) in pcDNA3.1 (for HEK cell transfection) or pGEMHE (for RNA production) was modified by QuikChange site-directed mutagenesis (Agilent Technologies) to create point mutants (verified by sequencing).
Human embryonic kidney (HEK) 293 cells were maintained at 37 °C at 5% CO2 in a humidified atmosphere, in Dulbecco's Modified Eagle's Medium/Nutrient Mix F12 (1:1) (Invitrogen, Paisley, UK) with GlutaMAX^TM and 10% fetal bovine serum (GE Healthcare) (DMEM/FBS) and passaged when confluent. Five micrograms of WT or mutant 5-HT3A DNA and 30 μl polyethyleneamine (Polysciences) incubated for 10 min in 1 mL DMEM was added to 60% confluent HEK293 cells for transfection, and cells grown for 2 days before assays.
(§2) As described previously (Price and Lummis, [2005]) cells were incubated for 45 min with fluorescent membrane potential-sensitive dye (Membrane Potential Blue kit, Molecular Devices) diluted in Flex buffer (10 mM HEPES, 115 mM NaCl, 1 mM KCl, 1 mM CaCl2, 1 mM MgCl2, and 10 mM glucose, pH 7.4), and subsequently assayed at room temperature for 180 s, with readings every 2 s. […] (log of the concentration of ligand), a is the minimum response, b is the maximum response, and nH is the Hill slope.

[2] = molecular target: T2, WT 5-HT3A receptor (Mus musculus, UniProt P23979); experiment: FlexStation membrane potential dye, 5-HT response, WT receptor in HEK293 cells; settings: mean and SEM, n ≥ 3
T2 construct: expressed in transfected cells; host or cells: HEK293
T2 sequence (P23979 24-483 isoform P23979-2 limits assumed): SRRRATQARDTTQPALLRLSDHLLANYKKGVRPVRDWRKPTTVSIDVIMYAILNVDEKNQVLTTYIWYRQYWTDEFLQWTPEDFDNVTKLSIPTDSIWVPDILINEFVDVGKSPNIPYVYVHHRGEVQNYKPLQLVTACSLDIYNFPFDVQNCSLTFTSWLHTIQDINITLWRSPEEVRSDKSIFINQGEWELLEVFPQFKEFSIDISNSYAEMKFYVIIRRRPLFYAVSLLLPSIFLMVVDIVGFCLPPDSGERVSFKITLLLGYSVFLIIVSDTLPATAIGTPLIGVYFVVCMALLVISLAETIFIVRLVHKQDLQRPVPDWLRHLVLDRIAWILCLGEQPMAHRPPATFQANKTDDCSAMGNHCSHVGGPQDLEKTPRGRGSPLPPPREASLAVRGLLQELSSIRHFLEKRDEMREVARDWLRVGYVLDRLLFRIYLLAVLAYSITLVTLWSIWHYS
Procedure: as §1
Human embryonic kidney (HEK) 293 cells were maintained at 37 °C at 5% CO2 in a humidified atmosphere, in Dulbecco's Modified Eagle's Medium/Nutrient Mix F12 (1:1) (Invitrogen, Paisley, UK) with GlutaMAX^TM and 10% fetal bovine serum (GE Healthcare) (DMEM/FBS) and passaged when confluent.
as §2

[3] = molecular target: T3, 5-HT3A receptor K255A (Mus musculus, UniProt P23979, K282A); experiment: Two-electrode voltage clamp, 5-HT response, K255A receptor in Xenopus oocytes; settings: mean and SEM, n ≥ 3
T3 sequence (P23979 24-489 K282A): T1 sequence (P23979 24-489 K282L) with L259A
Procedure: as §1
Xenopus laevis oocytes from EcoCyte Biosciences (Austin Texas) were injected with 100 pg cRNA (generated with the ThermoFisher mMESSAGE mMACHINE T7 transcription kit) and left in injection media [88 mM NaCl, 2.4 mM NaHCO3, 1 mM KCl, 0.82 mM MgSO4 ·7H20, 5 mM Tris-HCl, 0.33 mM Ca(NO3)2·4H2O, 0.41 mM CaCl2·2H2O, 2.51 mM sodium pyruvate, 0.12 mg/ml theophylline, 0.05 mg/ml gentamicin, pH 7.5] at 16 °C for 24 h. […] The holding potential was −60 mV, using glass microelectrodes with a resistance of approximately 1 MΩ backfilled with 3M KCl.

NCCc1c[nH]c2ccc(O)cc12 [5-HT]
pEC50 [1]: NF | nH (Hill slope) [2]: 3.7 ± 0.3 | nH [3]: 1.9 ± 0.5
